From patent US20230123488A1, “STABLE TOPICAL TETRACYCLINE COMPOSITIONS” (VYNE THERAPEUTICS INC., priority 2017, published 2023)
Counter-ions that a name gives are not always drawn. Like-named read-outs stand apart in the source and are kept apart here.

What was measured:
[1] = Compatibility test of active agent with excipients; assay type: physicochemical; conditions: excipients: soybean oil, paraffin 57-64, polyvinyl alcohol and hydroxypropylcellulose (klucel)
Experimental: Compatibility tests were performed as described in US8,343,945 and US8,945,516, which are incorporated here by reference with respect to the excipients and their compatibility described herein. […] The mixture was assessed for active agent degradation and optionally for color change.

[2] = Cyclomethicone 5 NF, Diisopropyl adipate, Hydrogenated Castor Oil, MCT Oil, cited from earlier work
[3] = Doxycycline solubility in various solvents; assay type: physicochemical; conditions: supernatant
Experimental: Saturated solutions of doxycycline hyclate are prepared by stirring doxycycline in approximately 20 g of solvents for over 48 hours at room temperature. By the end of stirring, all samples have solids in equilibrium with liquids. The samples are filtered and subjected to quantification using UPLC.
Each composition was subjected to centrifugation and the supernatant with dissolved active agent analyzed. The weight /weight percentage of active agent found dissolved in each solvent is shown below: […]

[4] = in Isopropyl myristate, room temperature, 72 hours
[5] = in Oleic acid, room temperature, 72 hours

Compatibility with additional excipients [1]	Doxycycline content (solubility) [3, 4]	Doxycycline content (solubility) [3, 5]	Doxycycline content (solubility) ([3]; in 1,3 propane-di-ol, room temperature, 72 hours) [% w/w]	Doxycycline content (solubility) ([3]; in Dimethyl isosorbide, excess doxycycline hyclate stirred at room temperature for 72 hours) [% w/w]	Doxycycline content (solubility) ([3]; in Dimethyl sulfoxide, room temperature, 72 hours) [% w/w]	Doxycycline content (solubility) ([3]; in Ethanol, room temperature, 72 hours) [% w/w]	Doxycycline content (solubility) ([3]; in Glycerin, room temperature, 72 hours) [% w/w]	Doxycycline content (solubility) ([3]; in Hexylene glycol, room temperature, 72 hours) [% w/w]	Doxycycline content (solubility) ([3]; in Isopropanol, room temperature, 72 hours) [% w/w]	Doxycycline content (solubility) ([3]; in Oleyl alcohol, room temperature, 72 hours) [% w/w]	Doxycycline content (solubility) ([3]; in Propylene carbonate, room temperature, 72 hours) [% w/w]	Doxycycline content (solubility) ([3]; in Propylene glycol, room temperature, 72 hours) [% w/w]	Doxycycline content (solubility) ([3]; in Transcutol, room temperature, 72 hours) [% w/w]	Molecule	Compatibility with excipients ([2]; excipients: Aerosil, Almond oil, Avocado oil, Beeswax, Behenyl alcohol, Calendula oil, Castor oil, Cetearyl octanoate, Cetostearyl alcohol, Cetyl alcohol, Cocoglycerides, Coconut oil, Gelled mineral oil, Grape seed oil, Hard Fat, Isododecane, isopropyl myristate, Isostearyl alcohol, Jojoba oil, Menthol, Myrist)	Compatibility with excipients ([2]; excipients: Cetearyl octanoate, Ethanol 95%, Hexylene glycol, Isostearic acid, Mineral Oil, Myristyl alcohol, Oleyl alcohol, PEG 100 Stearate, PPG-15 Stearyl Ether, Sorbitan Monostearate (SPAN 60), Stearyl alcohol)
compatible														CN(C)c1ccc(O)c2c1C[C@H]1C[C@H]3[C@H](N(C)C)C(O)=C(C(N)=O)C(=O)[C@@]3(O)C(O)=C1C2=O [minocycline HCL, Minocycline HCL]	compatible	
	Not detected	Not detected												C[C@H]1c2cccc(O)c2C(=O)C2=C(O)[C@]3(O)C(=O)C(C(N)=O)=C(O)[C@@H](N(C)C)[C@@H]3[C@@H](O)[C@@H]21 [doxycycline, Doxycycline]		
	Not detected	Not detected	21.56	4.12	25.34	3.15	18.28	5.47	1.67	0.29	0.78	34.17	16.30	Doxycycline Hyclate [Dox hyclate]		compatible
